Experimental data reported in patent publication USRE35904E, “Method and probes for detecting nucleoside transporter and method for producing the probes” (Governors of the University of Alberta, priority 1995, dated 1998).
Blank lines part the entries; values can stand above or below the compound they belong to.

Columns and labels:
[1] = target: T1, es nucleoside transporter (Mus musculus, UniProt Q9JIM1); assay: [3H]NBMPR equilibrium binding to L1210/B23.1 cells and its inhibition by SAENTA-fluorescein probes; conditions: 22°; for Ki: replots of Kd(app)/Bmax versus [probe], read-out: Ki (mean ± S.D.)
T1 construct: endogenous in cells; host or cells: L1210/B23.1 mouse leukemia cells
T1 sequence (Q9JIM1 1-460): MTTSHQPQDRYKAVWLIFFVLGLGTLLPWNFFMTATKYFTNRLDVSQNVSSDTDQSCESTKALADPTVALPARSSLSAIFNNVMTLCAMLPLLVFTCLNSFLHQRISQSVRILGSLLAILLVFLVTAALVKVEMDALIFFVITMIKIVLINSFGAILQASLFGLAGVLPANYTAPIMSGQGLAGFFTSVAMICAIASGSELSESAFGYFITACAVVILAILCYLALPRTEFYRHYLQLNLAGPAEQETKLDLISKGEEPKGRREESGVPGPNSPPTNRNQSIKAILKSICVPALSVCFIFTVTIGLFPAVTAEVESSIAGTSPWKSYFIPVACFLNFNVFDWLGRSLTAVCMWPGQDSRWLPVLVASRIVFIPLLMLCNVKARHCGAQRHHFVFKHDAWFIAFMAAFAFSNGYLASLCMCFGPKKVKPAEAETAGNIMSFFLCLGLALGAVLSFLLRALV

[2] = target: T2, es nucleoside transporter (Sus scrofa, UniProt A0A287B2T6); assay: Inhibition of site-specific [3H]NBMPR binding to unsealed pig erythrocyte ghosts; conditions: for IC50: 2 nM [3H]NBMPR, 20 min, 22° C., pH 7.4, read-out: IC50 for inhibition of site-bound [3H]NBMPR; for inhibition of NBMPR binding to the nucleoside transporter: result in words
T2 construct: immediately processed by conventional methods for recovery of erythrocytes; tissue Gainers, Edmonton, Alberta, Canada (blood of domestic pigs); host or cells: pig erythrocytes, unsealed ghosts
Description: Blood from adult domestic pigs (Gainers, Edmonton, Alberta, Canada) was collected into 0.2 vol. of anticoagulant solution (90 mM-sodium citrate/16 mM-citric acid/16 mM-monosodium phosphate/2 mM-adenine/12 mM-inosine) and immediately processed by conventional methods for recovery of erythrocytes.
Unsealed ghosts were prepared at 4° C. by the procedure of Steck & Kant, (1974), Methods in Enzymology, vol. 31, pp. 172-180, modified by the inclusion of 0.1 mM phenylmethane sulphonyl fluoride, and stored at -70° C.
NBMPR was prepared as described by Paul, Chen & Paterson (1975), J. Med Chem., vol. 18, pp. 968-973. [G-^3 H]NBMPR (23 Ci/mmol), obtained from Moravek Biochemicals, Brea, CA., U.S.A., was purified by using a Spheri-10 RP18 100 mm×4.6 mm column (Brownlee Labs, Santa Clara, CA,. U.S.A.), eluted with a methanol/water gradient.
Binding to unsealed ghosts was determined by a filtration assay, as described by Agbanyo, Cass & Paterson (1988) Mol. Pharmacol., vol. 33, pp. 332-337. Assay mixtures (final volume, 1.2 ml; two samples per condition) contained 2 nM-[^3 H]NBMPR, graded concentrations of test compound and unsealed ghosts (10 μg of protein/ml) in 5 mM-sodium phosphate buffer, pH 7.4, at 22° C., and, for determination of non-specific binding, 5 μM non-radioactive NBMPR was present. After a 20 min incubation at 22° C., membrane material from 1 ml portions of assay mixtures was collected by vacuum filtration on Whatman GF/C microfibre filters, which were then rapidly washed three times with 2 ml portions of ice-cold 5 mM-sodium phosphate buffer. The filters were placed in scintillation vials and assayed for radioactivity after a 16 h incubation in 8 ml of Triton X-100-based scintillation fluid as described by Pande (1976) Anal. Biochem., vol. 74, pp. 25-34. Protein was determined by the bicinchoninic acid method of Smith et al. (1985) Anal. Biochem., vol. 150, pp. 76-85.
Correction for non-specific binding was determined by performing the assay in the presence of 5 μM-non radioactive NBMPR. Replicate mixtures contained ghosts, 2 nM-[^3 H]NBMPR, graded concentrations of SAENTA or acetyl SAENTA (prepared as in Example 1) and, in mixtures used for non-specific binding, 5 μM-non radioactive NBMPR. Values for [^3 H]NBMPR specifically bound in the presence of inhibitor are expressed as percentages of that bound in its absence.
IC50 values were determined from plots of % site-bound NBMPR in presence of test compound against concentration of test compound.

nucleoside transporter [3] = target: T3, nucleoside transporter (Homo sapiens, UniProt Q99808); assay: Inhibition of [3H]cytosine arabinoside (araC) influx in RC2a leukaemic cells; type: cell-based
T3 construct: The human leukaemic cell line RC2a, of myelomonocytic origin; endogenous in cells; host or cells: RC2a human leukaemic (myelomonocytic) cells
T3 sequence (Q99808 1-456): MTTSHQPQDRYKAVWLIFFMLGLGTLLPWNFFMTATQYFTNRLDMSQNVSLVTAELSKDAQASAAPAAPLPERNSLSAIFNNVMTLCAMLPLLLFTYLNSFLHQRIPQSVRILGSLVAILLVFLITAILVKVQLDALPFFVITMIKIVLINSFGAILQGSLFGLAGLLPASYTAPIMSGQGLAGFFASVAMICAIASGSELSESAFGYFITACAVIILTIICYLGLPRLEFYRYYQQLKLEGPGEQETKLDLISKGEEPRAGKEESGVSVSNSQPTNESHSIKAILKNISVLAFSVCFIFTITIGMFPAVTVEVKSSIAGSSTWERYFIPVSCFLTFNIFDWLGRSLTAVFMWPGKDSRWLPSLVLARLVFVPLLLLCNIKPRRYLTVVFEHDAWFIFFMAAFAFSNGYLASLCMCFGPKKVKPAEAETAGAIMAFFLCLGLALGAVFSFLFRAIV
Description: . Unlabelled NBMPR was supplied by Sigma (St. Louis, MO, U.S.A.). [^3 H]Cytosine arabinoside (araC) and [^14 C]polyethylene glycol were obtained from Amersham, Buckinghamshire, England. Dilazep was a gift from Roche, Dee Why, Australia. Incubations were carried out using imidazole-buffered saline (IBS; […], 5 mM KCl, 5 mM imidazole-Cl, 1 mM MgCl2 and 5 mM glucose, pH 7.4).
The human leukaemic cell line RC2a, of myelomonocytic origin (Bradley et al., 1982 Brit. J. Haematol., vol. 51, pp. 595-604) was maintained in RPMI 1640 medium containing 10% foetal calf serum, 2 mM glutamine, 20 mM HEPES (pH 7.4) (Flow Laboratories, Sydney, Australia) and 20 mg/l gentamycin sulphate (Roussell, Castle Hill, Australia). Cell densities were maintained below 5×10^5 /ml. Cells were collected by centrifugation and resuspended in buffered saline for assays.
Prior to measurement of [^3 H]araC uptake, RC2a leukaemic cells were treated at 20° C. for 10 min with graded concentrations (0-0.05 μM) of .[.SAENTA-x2 -fluorescein.]. .Iadd.SAENTA-X2-fluorescein .Iaddend.prepared as in Example 3. Treated cells (100 μl, 5×10^7 cells/ml) were added to [^3 H]araC (100 μl) in IBS medium in 1.5 ml centrifuge tubes to give a final araC concentration of 50 μM. [^3 H]araC uptake was ended 20 sec. later by the addition of 800 μl of ice-cold dilazep (750 μM) (Jamieson et al., 1989). Phthalate oil was added immediately and the tube spun at 8000 g for 2 min. Medium above the oil was aspirated, the tube walls washed, and the oil above the cell pellet removed. Pellets were solubilized using 0.5M NaOH and the [^3 H]araC contents were measured by liquid scintillation counting. […]
The ability of .[.SAENTA-x2 -fluorescein.]. .Iadd.SAENTA-X2-fluorescein .Iaddend.to inhibit influx of nucleoside was assessed in cultured RC2a leukaemic cells by treating the cells for 10 min with graded concentrations of .[.SAENTA-x2 -fluorescein.]. .Iadd.SAENTA-X2-fluorescein .Iaddend.(0 to 0.25 μM). Uptake rates of araC (50 μM) were then determined over 20 s at 20° C. as described above.

nucleoside transporter [4] = target: T3, nucleoside transporter; assay: Inhibition of [3H]NBMPR binding to RC2a leukaemic cells; conditions: 30 min, 37° C., FIG. 5; read-out: half-maximal inhibition of site-specific [3H]NBMPR binding
Description: [^3 H]NBMPR from Moravek Biochemicals Brea, CA, U.S.A. was purified by reverse phase HPLC using methanol-water as solvent. Unlabelled NBMPR was supplied by Sigma (St. Louis, MO, U.S.A.). [^3 H]Cytosine arabinoside (araC) and [^14 C]polyethylene glycol were obtained from Amersham, Buckinghamshire, England. Dilazep was a gift from Roche, Dee Why, Australia.
The free [^3 H]NBMPR concentration in the medium above the oil was also measured. Non-specific binding of [^3 H]NBMPR was measured in parallel incubations of cells treated for 5 min at 37° C. with 5 μM NBMPR before the addition of [^3 H]NBMPR. Specific binding was calculated by subtracting the amount of non-specific binding (determined in the presence of 5 μM unlabelled NBMPR) from total [^3 ]NBMPR binding in all analyses.

nucleoside transporter [5] = target: T3, nucleoside transporter; assay: Equilibrium binding of SAENTA-fluorescein probe to RC2a cells by flow cytometry, with displacement by NBMPR or dilazep
[6] = target: T1, es nucleoside transporter; assay: Flow cytometric staining of L1210/B23.1 cells (es nucleoside transporter-expressing) by SAENTA-fluorescein probe; type: cell-based; conditions: 40 nM 5-(SAENTA-X2)-fluorescein, 10 min, 4° C., pH 8.0, FIG. 8
Description: Flow cytometric measurements of binding of .[.SAENTA-x2 -fluorescein.]. .Iadd.SAENTA-X2-fluorescein .Iaddend.prepared as in Example 3 was carried out as in Example 4 using two clonal lines of cultured mouse leukemia L 1210 cells, L 1210/B23.1 and L 1210/MA-27.1. L 1210/B23.1 expresses NBMPR binding sites and nuclesoside transporter activity whereas L 1210/MA-27.1 cells lack both of these features.
Staining conditions were chosen to minimise non-specific fluorescence signals from L 1210/MA-27.1 cells treated with the nucleoside.
Cells were exposed for 10 min at 4° C. to phosphate-buffered (pH 8.0) salts medium containing 40 nM .[.5(SAENTA-xx2)fluorescein.]. .Iadd.5-(SAENTA-X2)-fluorescein .Iaddend.prior to flow cytometric analysis in a BD FACSan instrument; 10^5 cells were analysed. Cells in replicate assay mixtures were also exposed for 5 min at 22° C. to medium containing 10 μM NBMPR and then for 10 min at 4° C. to medium containing both NBMPR and .[.5-SAENTA-x2)-fluorescein.]. .Iadd.5-(SAENTA-X2)-fluorescein.Iaddend..
(a) Clonal lines of mouse leukemia cells were exposed for 10 min at 4° C. to phosphate buffered (pH 8.0) saline containing […] .[.5-(SAENTA-x2)-fluorescein.]. .Iadd.5-(SAENTA-X2)-fluorescein .Iaddend.(prepared as in Example 3) prior to flow cytometric analysis in a BD FACScan instrument; 10^4 cells were analysed. Cells in replicate mixtures were also exposed for 5 min at 22° C. to medium containing 10 μM NBMPR and then for 10 min at 4° C. to medium containing both NBMPR and .[.5-(SAENTA-x2)-fluorescein.]. .Iadd.5-(SAENTA-X2)-fluorescein.Iaddend.. L 1210/B23.1 cells express the es nucleoside transport system whereas L 1210/MA-27.1 cells lack that activity.

T2 sequence (A0A287B2T6 1-457): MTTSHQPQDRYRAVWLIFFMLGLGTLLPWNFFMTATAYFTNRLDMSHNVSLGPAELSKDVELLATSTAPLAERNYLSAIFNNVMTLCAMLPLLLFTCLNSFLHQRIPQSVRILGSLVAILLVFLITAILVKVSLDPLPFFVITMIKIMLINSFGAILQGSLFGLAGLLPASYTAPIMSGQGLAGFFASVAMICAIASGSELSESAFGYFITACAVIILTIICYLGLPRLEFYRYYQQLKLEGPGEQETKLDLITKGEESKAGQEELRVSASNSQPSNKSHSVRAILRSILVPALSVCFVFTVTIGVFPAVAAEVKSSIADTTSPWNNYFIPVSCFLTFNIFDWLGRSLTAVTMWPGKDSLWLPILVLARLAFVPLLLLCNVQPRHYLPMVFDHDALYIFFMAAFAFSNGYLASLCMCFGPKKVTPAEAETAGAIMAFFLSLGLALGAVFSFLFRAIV

Structure (SMILES): O=[N+]([O-])c1ccc(CSc2ncnc3c2ncn3C2OC(CO)C(O)C2O)cc1 (centres unmarked) [NBMPR, nitrobenzyl thioinosine, reference compound]
Kd ([1]; Scatchard analysis (LIGAND)): 0.085 ± 0.015 nM

Structure (SMILES): NCCSC[C@H]1O[C@@H](n2cnc3c(NCc4ccc([N+](=O)[O-])cc4)ncnc32)[C@H](O)[C@@H]1O [SAENTA, 5'-S-(2-aminoethyl)-6-N-(4-nitrobenzyl)-5'-thioadenosine]
IC50 [2]: 330 nM
inhibition of NBMPR binding to the nucleoside transporter [2]: strong inhibition

Structure (SMILES): O=C(O)c1cc(NC(=S)NCCSC[C@H]2O[C@@H](n3cnc4c(NCc5ccc([N+](=O)[O-])cc5)ncnc43)[C@H](O)[C@@H]2O)ccc1-c1c2ccc(=O)cc-2oc2cc(O)ccc12 [SAENTA-X2-fluorescein]
IC50 (nucleoside transporter [3]; 50 μM araC, 20° C., 10 min pretreatment): ~40 nM
inhibition of influx of [3H]araC (nucleoside transporter [3]; 50 μM araC, 20° C., 10 min exposure to 0.25 μM probe): 90%
IC50 (nucleoside transporter [4]): 50 to 100 nM
EC50 (nucleoside transporter [5]; RC2a cells 1×10^5/ml, room temperature, n=3, ±1 SD, FIG. 7, read-out: concentration giving half-maximal binding (NBMPR-sensitive)): 6.2 ± 1 nM
time to equilibrium of cell bound fluorescence (nucleoside transporter [5]; all ligand concentrations, room temperature): 10 min
time to equilibrium between bound and free probe (nucleoside transporter [5]; lowest ligand concentration, room temperature): 10 min
distinction of L1210/B23.1 from L1210/MA-27.1 cells by cell staining [6]: able to distinguish clearly

Structure (SMILES): CC(=O)NCCSC[C@H]1O[C@@H](n2cnc3c(NCc4ccc([N+](=O)[O-])cc4)ncnc32)[C@H](O)[C@@H]1O [acetyl SAENTA]
IC50 [2]: 76 nM
inhibition of NBMPR binding to the nucleoside transporter [2]: strong inhibition

Structure (SMILES): COc1cc(C(=O)OCCCN2CCCN(CCCOC(=O)c3cc(OC)c(OC)c(OC)c3)CC2)cc(OC)c1OC [dilazep, reference compound]
effectiveness in stopping araC influx (nucleoside transporter [3]; dilazep added to cells prior to [3H]araC): effectiveness of dilazep in stopping influx was confirmed
displacement of SAENTA-X2-fluorescein binding (nucleoside transporter [5]; 2 μM dilazep versus 1 μM NBMPR): as effective as NBMPR

Now from value to compound:

Ki [1]: 0.8 ± 0.21 nM
Structure (SMILES): O=C(CCCCCNC(=O)c1ccc2c(c1)C(=O)OC21c2ccc(O)cc2Oc2cc(O)ccc21)NCCSC[C@H]1O[C@@H](n2cnc3c(NCc4ccc([N+](=O)[O-])cc4)ncnc32)[C@H](O)[C@@H]1O [5-(SAENTA-X8)-fluorescein, 5'-S-[2-(6-(Fluorescein-5-carboxamido)hexanoylamino)ethyl]-N^6-(4-nitrobenzyl)-5'-thioadenosine]

Ki [1]: 9.9 ± 2.8 nM
Structure (SMILES): O=C1OC2(c3ccc(O)cc3Oc3cc(O)ccc32)c2cc(NC(=S)NCCSC[C@H]3O[C@@H](n4cnc5c(NCc6ccc([N+](=O)[O-])cc6)ncnc54)[C@H](O)[C@@H]3O)ccc21 [6-(SAENTA-X2)-fluorescein]

Ki [1]: 1.7 ± 0.5 nM
Structure (SMILES): O=C(CCCCCNC(=O)c1ccc2c(c1)C1(OC2=O)c2ccc(O)cc2Oc2cc(O)ccc21)NCCSC[C@H]1O[C@@H](n2cnc3c(NCc4ccc([N+](=O)[O-])cc4)ncnc32)[C@H](O)[C@@H]1O [6-(SAENTA-X8)-fluorescein, 5'-S-[2-(6-(Fluorescein-6-carboxamido)hexanoylamino)ethyl]-N^6-(4-nitrobenzyl)-5'-thioadenosine]
